# Read-outs that look alike come from different tables or passages of the source.
# Legend:
# SLC47A1 = target: T1, SLC47A1 (Homo sapiens, UniProt Q96FL8); test: Uptake ratio screen, SLC47A1-overexpressing HEK293 over empty vector cells; type: cell-based; settings: 2.5 μM, 2 min
# T1 sequence (Q96FL8 1-570): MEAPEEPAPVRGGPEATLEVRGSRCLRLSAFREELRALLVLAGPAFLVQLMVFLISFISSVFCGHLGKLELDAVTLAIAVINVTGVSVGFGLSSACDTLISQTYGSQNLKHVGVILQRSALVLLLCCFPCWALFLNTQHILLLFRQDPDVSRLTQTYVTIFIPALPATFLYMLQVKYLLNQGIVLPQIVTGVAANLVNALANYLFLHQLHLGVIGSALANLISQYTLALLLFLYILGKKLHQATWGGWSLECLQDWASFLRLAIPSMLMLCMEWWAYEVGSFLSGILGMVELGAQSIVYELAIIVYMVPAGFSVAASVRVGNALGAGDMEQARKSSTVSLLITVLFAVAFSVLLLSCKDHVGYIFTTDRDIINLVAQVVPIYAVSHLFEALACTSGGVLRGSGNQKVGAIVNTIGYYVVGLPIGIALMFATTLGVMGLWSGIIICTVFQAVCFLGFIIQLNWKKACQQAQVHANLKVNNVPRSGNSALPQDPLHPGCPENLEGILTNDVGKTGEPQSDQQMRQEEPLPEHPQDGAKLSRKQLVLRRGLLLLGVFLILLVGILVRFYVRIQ
# Method: (§1) Typically discussed substrates of the proton organic-cation antiporter ([14]) are highlighted in dark green in Figure 1.
# (§2) In preparation for transport experiments, 24-well plates were pre-coated with poly-D-lysine (Sigma-Aldrich) and 300,000 cells were plated per well and incubated for 48 h. Firstly, the 24-well plate was placed on a heating plate at 37 °C, and the cells were washed with 37 °C HBSS^+ buffer (Hank’s balanced salt solution supplemented with 10 mM Hepes and adjusted to pH 7.4; Thermo Fisher Scientific). The substance-of-interest, which was diluted in 37 °C HBSS^+ to a desired concentration, was added to the cells for exactly 2 min. […] The uptake was stopped with ice-cold HBSS^+, and the 24-well plate was removed from the heating plate. The cells were washed twice with the cold HBSS^+ before they were lysed for 15 min with 80% (v/v) acetonitrile containing the respective internal standard for mass spectrometry. For variations in seeded cell numbers between the cell lines, several wells were lysed in RIPA buffer and used for total protein quantification using a bicinchoninic assay ([74]) and bovine serum albumin as calibration.
# (§3) The intracellular drug concentrations after transport experiments were analyzed by high-performance liquid chromatography coupled to tandem mass spectrometry analysis. The HPLC consisted of a Shimadzu Nexera HPLC System with a SIL-30AC autosampler, a LC-30AD pump, a CTO-20AC column oven, and a CBM-20A controller (Shimadzu). The reverse-phase chromatography of compounds was accomplished with a Brownlee SPP RP-Amide column with 4.6 × 100 mm inner dimensions, a particle size of 2.7 μm, and a preceding Phenomenex C-18 guard column. […] After separation, the detection of substances was performed with an API 4000 tandem mass spectrometer (AB SCIEX, https://sciex.com/support/software-support/software-downloads), followed by quantification of results with the Analyst software (AB SCIEX, version 1.6.2). […]
# (§4) Transport-mediated net uptake was determined as fold-increase of transporter-overexpressing cells over empty vector–transfected control cells.
# SLC47A2 = SLC47A2 (Homo sapiens, UniProt Q86VL8); test: Uptake ratio screen, SLC47A2-overexpressing HEK293 over empty vector cells; type: cell-based; settings: 2.5 μM, 2 min
# Sequence of SLC47A2 (Q86VL8 1-566 isoform Q86VL8-3): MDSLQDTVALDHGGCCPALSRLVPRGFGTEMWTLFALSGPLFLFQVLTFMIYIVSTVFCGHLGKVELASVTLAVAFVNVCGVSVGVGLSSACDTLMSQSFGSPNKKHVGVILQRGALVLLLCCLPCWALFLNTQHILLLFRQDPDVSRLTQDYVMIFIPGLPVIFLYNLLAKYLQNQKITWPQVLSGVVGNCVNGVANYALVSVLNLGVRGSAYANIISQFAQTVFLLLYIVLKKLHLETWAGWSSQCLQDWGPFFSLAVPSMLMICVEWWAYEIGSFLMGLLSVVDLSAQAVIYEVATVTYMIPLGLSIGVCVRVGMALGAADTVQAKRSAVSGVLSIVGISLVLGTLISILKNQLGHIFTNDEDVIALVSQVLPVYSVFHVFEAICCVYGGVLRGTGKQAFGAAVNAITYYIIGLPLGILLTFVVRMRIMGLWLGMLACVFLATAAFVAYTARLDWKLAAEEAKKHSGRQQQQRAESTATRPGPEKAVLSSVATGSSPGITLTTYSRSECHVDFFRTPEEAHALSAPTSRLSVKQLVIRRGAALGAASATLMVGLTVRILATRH
# Method: as §1, §2, §3, §4
# SLC35G3 [1] = target: T2, SLC35G3 (Homo sapiens, UniProt Q8N808); test: Uptake ratio screen, SLC35G3-overexpressing HEK293 over empty vector cells; type: cell-based; parameters: by amplifying the entire gene-of-interest within the HEK293 genome via a long-range PCR
# T2 sequence (Q8N808 whole entry): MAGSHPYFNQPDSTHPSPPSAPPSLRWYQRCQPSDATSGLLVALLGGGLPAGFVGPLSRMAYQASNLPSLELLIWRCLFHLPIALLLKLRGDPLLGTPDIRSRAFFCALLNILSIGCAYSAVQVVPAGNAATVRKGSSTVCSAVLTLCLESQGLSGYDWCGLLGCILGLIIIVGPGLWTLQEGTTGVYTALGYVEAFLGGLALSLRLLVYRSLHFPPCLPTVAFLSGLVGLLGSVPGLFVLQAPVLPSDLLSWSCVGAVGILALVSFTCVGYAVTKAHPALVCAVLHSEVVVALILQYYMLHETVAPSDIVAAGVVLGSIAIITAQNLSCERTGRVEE
# SLC38A10 = SLC38A10 (Homo sapiens, UniProt Q9HBR0); settings: SLC38A10, HEK293, net uptake over empty vector cells
# Sequence of SLC38A10 (Q9HBR0 whole entry): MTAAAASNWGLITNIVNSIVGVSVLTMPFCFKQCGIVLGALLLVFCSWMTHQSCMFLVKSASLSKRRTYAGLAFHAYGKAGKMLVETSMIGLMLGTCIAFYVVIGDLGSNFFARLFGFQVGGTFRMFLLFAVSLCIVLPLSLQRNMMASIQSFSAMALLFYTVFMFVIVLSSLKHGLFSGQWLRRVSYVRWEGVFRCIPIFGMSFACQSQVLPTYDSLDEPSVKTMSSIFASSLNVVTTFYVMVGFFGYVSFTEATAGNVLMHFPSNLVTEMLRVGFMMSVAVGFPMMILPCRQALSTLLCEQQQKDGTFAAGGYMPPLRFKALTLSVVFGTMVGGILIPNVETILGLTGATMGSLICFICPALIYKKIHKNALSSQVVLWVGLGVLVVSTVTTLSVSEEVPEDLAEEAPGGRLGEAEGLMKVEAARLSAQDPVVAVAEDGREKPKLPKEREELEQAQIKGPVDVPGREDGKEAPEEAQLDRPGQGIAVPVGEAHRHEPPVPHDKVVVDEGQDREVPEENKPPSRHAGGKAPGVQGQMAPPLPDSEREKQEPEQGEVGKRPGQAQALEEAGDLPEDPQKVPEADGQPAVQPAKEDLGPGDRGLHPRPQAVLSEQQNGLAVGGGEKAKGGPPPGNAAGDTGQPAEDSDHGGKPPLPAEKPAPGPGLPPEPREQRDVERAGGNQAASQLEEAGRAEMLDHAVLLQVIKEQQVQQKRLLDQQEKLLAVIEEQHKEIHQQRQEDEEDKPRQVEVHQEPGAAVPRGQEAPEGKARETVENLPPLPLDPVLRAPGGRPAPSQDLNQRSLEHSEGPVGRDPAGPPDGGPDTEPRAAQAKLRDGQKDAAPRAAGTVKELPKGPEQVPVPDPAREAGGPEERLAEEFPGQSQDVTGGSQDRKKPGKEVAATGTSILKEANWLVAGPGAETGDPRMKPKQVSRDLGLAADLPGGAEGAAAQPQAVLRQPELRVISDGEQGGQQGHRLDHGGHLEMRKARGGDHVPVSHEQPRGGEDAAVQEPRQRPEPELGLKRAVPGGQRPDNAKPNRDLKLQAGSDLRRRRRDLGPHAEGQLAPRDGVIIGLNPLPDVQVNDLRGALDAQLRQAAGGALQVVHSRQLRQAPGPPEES
# SLC22A15 = target: T3, SLC22A15 (Homo sapiens, UniProt Q8IZD6); test: Uptake ratio screen, SLC22A15-overexpressing HEK293 over empty vector cells; type: cell-based; settings: 2.5 μM (nicotine 10 μM), 2 min
# T3 construct: by amplifying the entire gene-of-interest within the HEK293 genome via a long-range PCR
# T3 sequence (Q8IZD6 whole entry): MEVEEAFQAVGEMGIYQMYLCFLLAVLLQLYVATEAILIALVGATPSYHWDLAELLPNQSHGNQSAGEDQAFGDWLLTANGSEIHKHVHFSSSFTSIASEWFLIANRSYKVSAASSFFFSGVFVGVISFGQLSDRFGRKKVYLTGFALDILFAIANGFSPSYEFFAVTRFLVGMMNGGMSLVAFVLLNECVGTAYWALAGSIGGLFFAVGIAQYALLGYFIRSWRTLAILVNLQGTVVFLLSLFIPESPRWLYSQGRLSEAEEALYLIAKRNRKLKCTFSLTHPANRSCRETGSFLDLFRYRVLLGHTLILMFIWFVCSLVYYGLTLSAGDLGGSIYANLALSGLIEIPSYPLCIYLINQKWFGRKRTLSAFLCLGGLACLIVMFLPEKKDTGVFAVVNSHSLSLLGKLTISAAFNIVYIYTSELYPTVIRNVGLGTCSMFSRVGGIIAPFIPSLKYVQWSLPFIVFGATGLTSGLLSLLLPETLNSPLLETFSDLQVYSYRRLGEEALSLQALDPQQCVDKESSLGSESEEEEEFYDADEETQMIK
# Method: as §1, §2
# (§5) The intracellular drug concentrations after transport experiments were analyzed by high-performance liquid chromatography coupled to tandem mass spectrometry analysis. The HPLC consisted of a Shimadzu Nexera HPLC System with a SIL-30AC autosampler, a LC-30AD pump, a CTO-20AC column oven, and a CBM-20A controller (Shimadzu). The reverse-phase chromatography of compounds was accomplished with a Brownlee SPP RP-Amide column with 4.6 × 100 mm inner dimensions, a particle size of 2.7 μm, and a preceding Phenomenex C-18 guard column. The mobile phase was composed of an organic additive with acetonitrile:methanol 6:1 (v/v) in total concentrations between 3% and 50% (v/v) and 0.1% (v/v) formic acid in the aqueous component of the eluent. During separation, the column oven was held at 40 °C and the mobile phase was maintained at a flow rate of 300 or 400 μl/min. After separation, the detection of substances was performed with an API 4000 tandem mass spectrometer (AB SCIEX, https://sciex.com/support/software-support/software-downloads), followed by quantification of results with the Analyst software (AB SCIEX, version 1.6.2). The composition of chromatographic conditions, as well as detailed mass spectrometric detection parameters, are listed in Table S5.
# as §4
# SLC35E4 = target: T4, SLC35E4 (Homo sapiens, UniProt Q6ICL7); test: Uptake ratio screen, SLC35E4-overexpressing HEK293 over empty vector cells; type: cell-based; parameters: by amplifying the entire gene-of-interest within the HEK293 genome via a long-range PCR; settings: 2.5 μM, 2 min
# T4 sequence (Q6ICL7 1-350): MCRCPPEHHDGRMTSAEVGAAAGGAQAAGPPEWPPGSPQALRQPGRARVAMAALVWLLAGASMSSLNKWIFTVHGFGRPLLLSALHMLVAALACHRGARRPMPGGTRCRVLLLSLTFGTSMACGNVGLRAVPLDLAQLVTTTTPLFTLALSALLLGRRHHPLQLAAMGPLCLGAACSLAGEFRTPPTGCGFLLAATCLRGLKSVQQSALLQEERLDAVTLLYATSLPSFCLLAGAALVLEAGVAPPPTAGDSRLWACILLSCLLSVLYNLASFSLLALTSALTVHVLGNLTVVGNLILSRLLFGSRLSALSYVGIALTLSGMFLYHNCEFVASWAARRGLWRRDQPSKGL
# Method: as §1, §2, §3, §4
# SLC35G3 [2] = target: T2, SLC35G3; settings: ratio of Vmax over KM
# SLC35G3 [3] = target: T2, SLC35G3
# SLC35F5 = target: T5, SLC35F5 (Homo sapiens, UniProt Q8WV83); test: Uptake ratio screen, SLC35F5-overexpressing HEK293 over empty vector cells; type: cell-based; parameters: by amplifying the entire gene-of-interest within the HEK293 genome via a long-range PCR; settings: 2.5 μM, 2 min
# T5 sequence (Q8WV83 1-523): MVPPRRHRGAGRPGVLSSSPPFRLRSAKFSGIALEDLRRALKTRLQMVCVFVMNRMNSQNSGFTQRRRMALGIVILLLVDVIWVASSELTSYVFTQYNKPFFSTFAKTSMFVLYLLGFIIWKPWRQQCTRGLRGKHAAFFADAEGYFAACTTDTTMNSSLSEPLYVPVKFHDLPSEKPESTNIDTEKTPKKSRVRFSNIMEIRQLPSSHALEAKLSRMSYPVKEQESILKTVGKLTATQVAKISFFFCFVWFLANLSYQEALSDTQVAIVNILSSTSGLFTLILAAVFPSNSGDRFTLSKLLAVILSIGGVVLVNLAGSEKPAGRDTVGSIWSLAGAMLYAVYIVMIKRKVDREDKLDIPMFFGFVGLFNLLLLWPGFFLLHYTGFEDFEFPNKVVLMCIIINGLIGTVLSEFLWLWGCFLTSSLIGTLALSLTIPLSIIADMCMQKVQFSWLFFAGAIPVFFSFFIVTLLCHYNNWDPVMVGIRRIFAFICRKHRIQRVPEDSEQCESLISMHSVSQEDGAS
# Method: as §1, §2, §5, §4
# [4] = 2.5 μM substrate, 2 min, HEK293
compound,measurement,setting,value
C[C@]12CC[C@@H]3c4ccc(OS(=O)(=O)O)cc4CC[C@H]3[C@@H]1CCC2=O [estrone-3-sulfate],Uptake by SLC47A1 (MATE1) (in words),SLC47A1,confirmed to be transported
same,Uptake by SLC47A2 (MATE2K) (in words),SLC47A2,confirmed to be transported
CC(N)Cc1ccccc1 (stereo not drawn) [Amphetamine],"Uptake data for SLC35G3, mean value (fold-increase over empty vector control)",SLC35G3 [1]; [4],1.28
same,Vmax (±SEM),SLC38A10,97.4 (±11.1) pmol × mg protein^-1 × min^-1
Nc1nc2c(ncn2COCCO)c(=O)[nH]1 [Acyclovir],Uptake by SLC47A1 (MATE1) (in words),SLC47A1,only transported by the MATEs
same,Uptake by SLC47A2 (MATE2K) (in words),SLC47A2,only transported by the MATEs
same,"Uptake data for SLC35G3, mean value (fold-increase over empty vector control)",SLC35G3 [1]; [4],1.21
C[N+](C)(C)[C@@H](Cc1c[nH]c(=S)[nH]1)C(=O)[O-] [Ergothionine],Uptake by SLC22A15 (in words),SLC22A15,did not measure significant uptake
same,"Uptake data for SLC35G3, mean value (fold-increase over empty vector control)",SLC35G3 [1]; [4],1.67
CC(C)C[C@H](N)C(=O)O [leucine],Uptake by SLC35E4 (in words),SLC35E4,minor
CCOC(=O)C1(c2ccccc2)CCN(C)CC1 [Meperidine],Uptake by SLC22A15 (in words),SLC22A15,significantly increased the uptake
same,Clint (±SEM),SLC35G3 [2],4.60 (±4.78) μl × mg protein^-1 × min^-1
CCCNC(C)C(=O)Nc1c(C)csc1C(=O)OC (stereo not drawn) [Articaine],Clint (±SEM),SLC35G3 [3],2.04 (±2.24) μl × mg protein^-1 × min^-1
same,"Uptake data for SLC35G3, mean value (fold-increase over empty vector control)",SLC35G3 [1]; [4],2.91
CCCN1CCCC[C@H]1C(=O)Nc1c(C)cccc1C [Ropivacaine],Clint (±SEM),SLC35G3 [3],3.64 (±1.93) μl × mg protein^-1 × min^-1
same,"Uptake data for SLC35G3, mean value (fold-increase over empty vector control)",SLC35G3 [1]; [4],3.07
O=C(O[C@H]1CN2CCC1CC2)N1CCc2ccccc2[C@@H]1c1ccccc1 [Solifenacin],"Uptake data for SLC35G3, mean value (fold-increase over empty vector control)",SLC35G3 [1]; [4],1.26
CN[C@@H](C)[C@H](O)c1ccccc1 [Ephedrine],"Uptake data for SLC35G3, mean value (fold-increase over empty vector control)",SLC35G3 [1]; [4],1.59
C[N+](C)(C)CC(O)CC(=O)[O-] (stereo not drawn) [Carnitine-d9],Uptake by SLC22A15 (in words),SLC22A15,did not measure significant uptake
same,"Uptake data for SLC35G3, mean value (fold-increase over empty vector control)",SLC35G3 [1]; [4],1.05
CNCC1CCCCC1(O)c1cccc(OC)c1 (stereo not drawn) [N-Desmethyltramadol],"Uptake data for SLC35G3, mean value (fold-increase over empty vector control)",SLC35G3 [1]; [4],1.38
"CNC(C)Cc1ccc2c(c1)OCO2 (stereo not drawn) [MDMA, 3,4-methylenedioxymethamphetamine]",Uptake by SLC22A15 (in words),SLC22A15,significantly increased the uptake
same,"Uptake data for SLC35G3, mean value (fold-increase over empty vector control)",SLC35G3 [1],1.58
same,Uptake by SLC35F5 (in words),SLC35F5,highest uptake rates
same,Clint (±SEM),SLC35G3 [2],4.31 (±2.26) μl × mg protein^-1 × min^-1
Fc1ccc([C@@H]2CCNC[C@H]2COc2ccc3c(c2)OCO3)cc1 [Paroxetin],"Uptake data for SLC35G3, mean value (fold-increase over empty vector control)",SLC35G3 [1]; [4],1.30
CNC1(c2ccccc2Cl)CCCCC1=O (stereo not drawn) [Ketamine],"Uptake data for SLC35G3, mean value (fold-increase over empty vector control)",SLC35G3 [1],1.28
CN1CCN(C2=Nc3cc(Cl)ccc3Nc3ccccc32)CC1 [Clozapine],"Uptake data for SLC35G3, mean value (fold-increase over empty vector control)",SLC35G3 [1]; [4],1.44
CCCN(CCC)CCc1cccc2c1CC(=O)N2 [Ropinirole],"Uptake data for SLC35G3, mean value (fold-increase over empty vector control)",SLC35G3 [1]; [4],1.37
CCCCNc1ccc(C(=O)OCCN(C)C)cc1 [Tetracaine],"Uptake data for SLC35G3, mean value (fold-increase over empty vector control)",SLC35G3 [1]; [4],1.54
